The data set can be described thus: Two-component Cys-Cys stapling by Pd-catalysed Tsuji-Trost S-allylation with bis(allylic carbonate) Ri ((Z)-but-2-ene-1,4-diyl) or Rj (2-methylenepropane-1,3-diyl), 1.2 eq; 2.4 eq Pd(dba)2, 2.4 eq BIPHEPHOS; bis-thioether formation. The note with it: the molecule shown is the open-chain precursor, CH3CN/H2O 2:1, 1.0 mM, 40.0 °C, 3.0 h, scale: 1 = cyclic product formed with full conversion of the linear peptide.

In turn, “H-Glu-Trp-Ala-Cys-Thr-Ala-Ala-Cys-Lys-Phe-Leu-Ala-Ala-His-Ala-OH (Cys4/Cys8 free SH; one S carries CH2C(=CH2)CH2OCO2Me from Rj at closure; single product peak)” showed a ring closure, product found (20-membered ring) of 1. As to “H-Ala-Gly-Cys-Lys-Asn-Phe-Phe-Trp-Lys-Thr-Phe-Thr-Ser-Cys-OH (Cys3/Cys14 free SH; one S carries CH2CH=CHCH2OCO2Me from Ri at closure; single product peak)”, the ring closure, product found (42-membered ring) worked out at 1. Substance “H-Glu-Trp-Ala-Cys-Thr-Ala-Cys-Ala-Lys-Phe-Leu-Ala-Ala-His-Ala-OH (Cys4/Cys7 free SH; one S carries CH2CH=CHCH2OCO2Me from Ri at closure; two product peaks, presumably E/Z)” yielded a ring closure, product found (18-membered ring) of 1.

“H-Glu-Trp-Ala-Cys-Thr-Ala-Cys-Ala-Lys-Phe-Leu-Ala-Ala-His-Ala-OH (Cys4/Cys7 free SH; one S carries CH2C(=CH2)CH2OCO2Me from Rj at closure; single product peak)” displayed a ring closure, product found (17-membered ring) of 1. Under “21-membered ring”, “H-Glu-Trp-Ala-Cys-Thr-Ala-Ala-Cys-Lys-Phe-Leu-Ala-Ala-His-Ala-OH (Cys4/Cys8 free SH; one S carries CH2CH=CHCH2OCO2Me from Ri at closure; two product peaks, presumably E/Z)” gave a ring closure, product found of 1.

With “H-Ala-Gly-Cys-Lys-Asn-Phe-Phe-Trp-Lys-Thr-Phe-Thr-Ser-Cys-OH (Cys3/Cys14 free SH; one S carries CH2C(=CH2)CH2OCO2Me from Rj at closure; two monomer peaks plus approx. 10% 2+2 dimer)”, where the note is “41-membered ring”, the ring closure, product found worked out at 1.

The values above are taken from PMC6776382.
